Measurements taken from ChEMBL document CHEMBL1157914, “5,5'-substituted indirubin-3'-oxime derivatives as potent cyclin-dependent kinase inhibitors with anticancer activity” (J Med Chem, 2010).
Active and inactive are the calls of the source. No cut-off for these calls is given here.

Columns and labels:
[1] = target: Cyclin-dependent kinase 2/cyclin E1 (Homo sapiens, UniProt P24941); experiment: Inhibition of CDK2/cyclin E; assay type: protein-complex assay
[2] = target: Cyclin-dependent kinase 2/cyclin E1 (Homo sapiens) (UniProt P24864+P24941); experiment: Inhibition of CDK2/cyclin E as percent residual activity; assay type: protein-complex assay; parameters: Residual activity / inhibition: concentration or dose not given beside the values
[3] = Selectivity ratio for CDK2/cyclinE over CDK1/cyclin B
A549 = experiment: Antiproliferative activity against human A549 cells after 3 days by SRB assay; assay type: functional, cell-based; settings: A549, 72 h
HT-1080 = experiment: Antiproliferative activity against human HT1080 cells after 3 days by SRB assay; assay type: functional, cell-based; settings: HT-1080, 72 h
[4] = Antiproliferative activity against human […] cells after 3 days by SRB assay; assay type: functional, cell-based; settings: 72 h
K562 = experiment: Antiproliferative activity against human K562 cells after 3 days by SRB assay; assay type: functional, cell-based; settings: K562, 72 h
SNU-638 = experiment: Antiproliferative activity against human SNU638 cells after 3 days by SRB assay; assay type: functional, cell-based; settings: SNU-638, 72 h
KB = experiment: Antiproliferative activity against human KB cells after 3 days by SRB assay; assay type: functional, cell-based; settings: 72 h
MCF7 = experiment: Antiproliferative activity against human MCF7 cells after 3 days by SRB assay; assay type: functional, cell-based; settings: MCF7, 72 h
[5] = target: Cyclin-dependent kinase 1/cyclin B1 (Homo sapiens) (UniProt P06493+P14635); experiment: Inhibition of CDK1/cyclin B at 1 uM after 40 mins by lequid scintillation counting; assay type: protein-complex assay
[6] = Aqueous solubility of compound in water; assay type: physicochemical; settings: buffer
[7] = Solubility of compound in 2 equimolar NaOH and distilled water; assay type: physicochemical; settings: buffer
[8] = Solubility of compound in 3 equimolar NaOH and distilled water; assay type: physicochemical; settings: buffer
[9] = Solubility of compound in 3 equimolar NaOH and 0.1 N NaHCO3 buffer; assay type: physicochemical
[10] = test system: Hepatocyte growth factor receptor (Homo sapiens), P08581 [M1250T]; experiment: Inhibition of recombinant Met M1250T mutant at 10 uM preincubated for 15 mins by HTRF assay
[11] = target: Hepatocyte growth factor receptor (Homo sapiens) (UniProt P08581); experiment: Inhibition of recombinant c-met at 10 uM preincubated for 15 mins by HTRF assay
[12] = target: Macrophage-stimulating protein receptor (Homo sapiens) (UniProt Q04912); experiment: Inhibition of recombinant Ron at 10 uM preincubated for 15 mins by HTRF assay
[13] = target: Vascular endothelial growth factor receptor 2 (Homo sapiens) (UniProt P35968); experiment: Inhibition of recombinant VEGFR2 at 10 uM preincubated for 15 mins by HTRF assay
[14] = target: Epidermal growth factor receptor (Homo sapiens) (UniProt P00533); experiment: Inhibition of recombinant EGFR at 10 uM preincubated for 15 mins by HTRF assay
[15] = target: Phosphatidylinositol 4,5-bisphosphate 3-kinase catalytic subunit gamma isoform (Homo sapiens) (UniProt P48736); experiment: Inhibition of human PI3Kgamma at 10 uM preincubated for 15 mins by HTRF assay
[16] = target: Insulin receptor (Homo sapiens) (UniProt P06213); experiment: Inhibition of insulin receptor at 10 uM preincubated for 15 mins by HTRF assay
[17] = target: Aurora kinase A (Homo sapiens) (UniProt O14965); experiment: Inhibition of recombinant auroraA at 10 uM preincubated for 15 mins by HTRF assay
[18] = target: Inhibitor of nuclear factor kappa-B kinase subunit beta (Homo sapiens) (UniProt O14920); experiment: Inhibition of recombinant IKK-beta at 10 uM preincubated for 15 mins by HTRF assay
[19] = target: High affinity nerve growth factor receptor (Homo sapiens, UniProt P04629); experiment: Inhibition of recombinant TrKa at 10 uM preincubated for 15 mins by HTRF assay

Sequence of Cyclin-dependent kinase 1/cyclin B1 (Homo sapiens) (P06493 whole entry, looked up): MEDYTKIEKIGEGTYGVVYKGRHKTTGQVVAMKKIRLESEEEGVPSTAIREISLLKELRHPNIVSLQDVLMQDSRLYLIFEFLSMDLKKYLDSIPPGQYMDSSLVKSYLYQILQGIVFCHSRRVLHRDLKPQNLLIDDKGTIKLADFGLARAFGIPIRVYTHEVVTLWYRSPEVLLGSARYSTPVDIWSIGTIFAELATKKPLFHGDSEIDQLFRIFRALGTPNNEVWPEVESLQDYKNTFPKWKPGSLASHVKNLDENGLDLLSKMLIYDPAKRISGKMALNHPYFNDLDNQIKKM
Sequence of Cyclin-dependent kinase 1/cyclin B1 (Homo sapiens) (P14635 whole entry, looked up): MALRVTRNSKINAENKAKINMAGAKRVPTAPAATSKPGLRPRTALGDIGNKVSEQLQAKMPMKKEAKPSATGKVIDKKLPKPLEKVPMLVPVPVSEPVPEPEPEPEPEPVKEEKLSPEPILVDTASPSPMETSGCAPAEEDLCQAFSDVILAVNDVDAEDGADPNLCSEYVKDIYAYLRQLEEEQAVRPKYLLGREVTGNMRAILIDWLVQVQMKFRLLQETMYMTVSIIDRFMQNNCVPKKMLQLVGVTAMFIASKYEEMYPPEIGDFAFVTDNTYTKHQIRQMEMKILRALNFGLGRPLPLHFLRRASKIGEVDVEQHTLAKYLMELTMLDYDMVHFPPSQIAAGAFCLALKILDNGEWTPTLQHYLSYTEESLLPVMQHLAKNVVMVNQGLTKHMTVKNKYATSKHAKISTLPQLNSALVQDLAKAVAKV
Sequence of Insulin receptor (Homo sapiens) (P06213 28-758 limits assumed): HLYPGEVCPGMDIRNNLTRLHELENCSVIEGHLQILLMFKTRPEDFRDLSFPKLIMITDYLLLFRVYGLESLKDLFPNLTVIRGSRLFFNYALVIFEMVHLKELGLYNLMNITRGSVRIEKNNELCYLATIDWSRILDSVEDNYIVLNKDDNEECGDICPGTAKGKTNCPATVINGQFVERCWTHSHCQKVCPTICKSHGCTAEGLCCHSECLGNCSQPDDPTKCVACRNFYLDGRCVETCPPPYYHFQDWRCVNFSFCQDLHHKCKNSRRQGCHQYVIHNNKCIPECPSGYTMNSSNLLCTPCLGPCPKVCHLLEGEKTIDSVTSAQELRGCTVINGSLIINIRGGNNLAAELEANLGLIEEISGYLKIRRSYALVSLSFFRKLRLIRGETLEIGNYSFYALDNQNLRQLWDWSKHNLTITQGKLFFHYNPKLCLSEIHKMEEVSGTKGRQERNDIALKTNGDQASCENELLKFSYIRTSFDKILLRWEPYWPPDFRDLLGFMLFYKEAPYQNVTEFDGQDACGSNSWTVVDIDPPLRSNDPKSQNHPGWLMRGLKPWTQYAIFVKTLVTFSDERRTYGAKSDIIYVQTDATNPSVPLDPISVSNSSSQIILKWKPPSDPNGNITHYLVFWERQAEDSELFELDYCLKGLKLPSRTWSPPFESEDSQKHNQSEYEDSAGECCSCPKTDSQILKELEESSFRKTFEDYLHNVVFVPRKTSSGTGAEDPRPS
Sequence of Insulin receptor (Homo sapiens) (P06213 763-1382 limits assumed): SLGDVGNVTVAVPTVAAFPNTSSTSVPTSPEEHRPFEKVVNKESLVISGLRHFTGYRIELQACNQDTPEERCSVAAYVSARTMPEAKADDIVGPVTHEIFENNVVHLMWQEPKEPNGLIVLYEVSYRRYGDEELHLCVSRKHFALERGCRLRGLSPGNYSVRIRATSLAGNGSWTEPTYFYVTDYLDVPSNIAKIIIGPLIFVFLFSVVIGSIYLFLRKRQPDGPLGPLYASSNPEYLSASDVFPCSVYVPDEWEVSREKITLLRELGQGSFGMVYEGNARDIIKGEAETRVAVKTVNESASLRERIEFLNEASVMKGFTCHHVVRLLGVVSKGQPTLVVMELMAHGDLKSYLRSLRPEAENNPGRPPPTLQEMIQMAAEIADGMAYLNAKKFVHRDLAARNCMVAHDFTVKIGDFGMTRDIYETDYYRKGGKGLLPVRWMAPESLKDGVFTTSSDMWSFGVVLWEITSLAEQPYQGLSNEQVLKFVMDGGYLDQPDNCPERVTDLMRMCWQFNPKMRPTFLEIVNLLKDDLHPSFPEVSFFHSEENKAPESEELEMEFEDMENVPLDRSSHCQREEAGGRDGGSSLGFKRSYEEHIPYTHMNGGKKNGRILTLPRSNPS
Sequence of Epidermal growth factor receptor (Homo sapiens) (P00533 whole entry, canonical isoform): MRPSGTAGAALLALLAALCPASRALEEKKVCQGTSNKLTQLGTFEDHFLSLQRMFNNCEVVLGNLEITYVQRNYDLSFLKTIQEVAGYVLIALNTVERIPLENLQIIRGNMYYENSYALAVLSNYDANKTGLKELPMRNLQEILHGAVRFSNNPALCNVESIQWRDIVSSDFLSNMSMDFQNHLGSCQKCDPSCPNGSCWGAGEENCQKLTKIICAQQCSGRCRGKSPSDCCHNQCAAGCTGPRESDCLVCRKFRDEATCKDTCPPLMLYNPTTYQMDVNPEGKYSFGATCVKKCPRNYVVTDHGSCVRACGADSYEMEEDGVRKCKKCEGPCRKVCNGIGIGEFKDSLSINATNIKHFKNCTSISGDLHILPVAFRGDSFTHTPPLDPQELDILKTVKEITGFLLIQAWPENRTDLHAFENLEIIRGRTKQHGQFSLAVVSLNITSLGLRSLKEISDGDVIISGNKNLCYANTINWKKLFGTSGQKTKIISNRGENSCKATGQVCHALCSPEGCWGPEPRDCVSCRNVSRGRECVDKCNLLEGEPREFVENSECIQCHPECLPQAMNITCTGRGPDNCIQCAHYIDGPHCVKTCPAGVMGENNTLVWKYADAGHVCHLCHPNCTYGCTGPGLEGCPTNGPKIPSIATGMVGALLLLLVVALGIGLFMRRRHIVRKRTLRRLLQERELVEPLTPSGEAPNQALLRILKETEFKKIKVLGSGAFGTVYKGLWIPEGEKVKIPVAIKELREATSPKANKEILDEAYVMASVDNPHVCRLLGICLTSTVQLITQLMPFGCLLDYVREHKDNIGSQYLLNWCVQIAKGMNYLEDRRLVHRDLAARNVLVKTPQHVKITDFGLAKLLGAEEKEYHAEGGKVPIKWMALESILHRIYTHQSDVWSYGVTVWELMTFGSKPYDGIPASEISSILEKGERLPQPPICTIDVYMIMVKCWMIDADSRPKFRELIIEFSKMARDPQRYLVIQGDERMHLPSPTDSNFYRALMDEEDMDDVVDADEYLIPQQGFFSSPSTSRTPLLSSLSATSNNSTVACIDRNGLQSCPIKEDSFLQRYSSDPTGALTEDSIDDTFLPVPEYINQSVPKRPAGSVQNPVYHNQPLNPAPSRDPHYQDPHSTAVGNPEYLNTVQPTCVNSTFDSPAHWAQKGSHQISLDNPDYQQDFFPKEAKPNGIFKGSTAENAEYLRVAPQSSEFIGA
Sequence of Phosphatidylinositol 4,5-bisphosphate 3-kinase catalytic subunit gamma isoform (Homo sapiens) (P48736 whole entry, looked up, canonical isoform): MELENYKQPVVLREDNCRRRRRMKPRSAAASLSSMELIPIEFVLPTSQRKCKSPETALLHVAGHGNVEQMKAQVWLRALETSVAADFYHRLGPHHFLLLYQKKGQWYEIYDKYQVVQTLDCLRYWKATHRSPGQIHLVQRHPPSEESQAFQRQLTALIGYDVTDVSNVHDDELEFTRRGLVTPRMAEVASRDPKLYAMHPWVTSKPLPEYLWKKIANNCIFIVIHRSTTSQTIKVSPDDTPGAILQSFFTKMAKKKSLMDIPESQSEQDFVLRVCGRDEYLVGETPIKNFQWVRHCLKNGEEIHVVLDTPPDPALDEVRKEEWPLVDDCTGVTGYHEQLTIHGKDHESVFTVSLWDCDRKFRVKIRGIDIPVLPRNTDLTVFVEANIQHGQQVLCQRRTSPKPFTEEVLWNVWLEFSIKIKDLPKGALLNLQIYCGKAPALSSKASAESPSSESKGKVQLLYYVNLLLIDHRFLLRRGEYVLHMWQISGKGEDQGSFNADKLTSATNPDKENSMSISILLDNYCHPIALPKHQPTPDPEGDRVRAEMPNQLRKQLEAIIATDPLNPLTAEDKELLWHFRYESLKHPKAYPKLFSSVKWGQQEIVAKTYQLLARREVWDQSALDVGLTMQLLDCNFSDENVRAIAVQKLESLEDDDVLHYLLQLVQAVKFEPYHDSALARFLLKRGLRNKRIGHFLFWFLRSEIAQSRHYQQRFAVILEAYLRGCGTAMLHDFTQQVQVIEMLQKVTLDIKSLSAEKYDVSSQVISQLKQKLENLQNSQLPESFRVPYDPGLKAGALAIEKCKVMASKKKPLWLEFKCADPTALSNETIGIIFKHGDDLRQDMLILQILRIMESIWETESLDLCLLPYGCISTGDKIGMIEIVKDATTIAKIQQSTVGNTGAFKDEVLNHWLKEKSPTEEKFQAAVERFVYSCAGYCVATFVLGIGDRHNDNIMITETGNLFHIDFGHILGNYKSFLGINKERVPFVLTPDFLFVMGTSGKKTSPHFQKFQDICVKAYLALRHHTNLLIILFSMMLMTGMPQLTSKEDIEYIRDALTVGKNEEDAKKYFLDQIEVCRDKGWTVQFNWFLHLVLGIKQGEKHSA
Sequence of Aurora kinase A (Homo sapiens) (O14965 whole entry): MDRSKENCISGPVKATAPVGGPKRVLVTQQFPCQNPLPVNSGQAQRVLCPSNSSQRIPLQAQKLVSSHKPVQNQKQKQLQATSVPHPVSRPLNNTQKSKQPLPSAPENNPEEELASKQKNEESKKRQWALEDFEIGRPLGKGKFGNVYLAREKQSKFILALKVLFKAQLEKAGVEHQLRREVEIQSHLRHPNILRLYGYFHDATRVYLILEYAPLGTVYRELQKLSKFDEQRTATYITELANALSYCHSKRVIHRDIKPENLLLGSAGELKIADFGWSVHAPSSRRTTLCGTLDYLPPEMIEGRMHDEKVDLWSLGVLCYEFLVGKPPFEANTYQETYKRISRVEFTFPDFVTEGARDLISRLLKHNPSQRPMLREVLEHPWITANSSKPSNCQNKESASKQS

Cc1ccc2c(c1)C(=N/O)/C(=C1/C(=O)Nc3ccc([N+](=O)[O-])cc31)N2
IC50 [1]: 0.00868 µM
Residual activity [2]: 90%
Selectivity ratio [3]: 7
IC50 (A549): > 20 µM
IC50 (HT-1080): 3.92 µM
IC50 [4]: 1.41 µM
IC50 (K562): 0.81 µM
IC50 (SNU-638): 1.06 µM
IC50 (KB): 2.11 µM
IC50 (MCF7): 1.06 µM

O=C1Nc2ccc(Cl)cc2/C1=C1/Nc2ccc(Cl)cc2/C1=N/O
IC50 [1]: 0.0111 µM
Residual activity [2]: 90%
Selectivity ratio [3]: 6
IC50 (A549): > 20 µM
IC50 (HT-1080): 12.2 µM
IC50 [4]: 1.86 µM
IC50 (K562): 17.2 µM
IC50 (SNU-638): 2.57 µM
IC50 (KB): 11.9 µM
IC50 (MCF7): 6.14 µM

O=C1Nc2ccc(F)cc2/C1=C1/Nc2ccc(F)cc2/C1=N/O
IC50 [1]: 0.00183 µM
Residual activity [2]: 90%
Selectivity ratio [3]: 6
IC50 (A549): 10.3 µM
IC50 (HT-1080): 8.62 µM
IC50 [4]: 13.5 µM
IC50 (K562): 15.9 µM
IC50 (SNU-638): 2.23 µM
IC50 (KB): 13.2 µM
IC50 (MCF7): 6.57 µM

Cc1ccc2c(c1)C(=N/O)/C(=C1/C(=O)Nc3ccc(F)cc31)N2
Residual activity [2]: 90%
IC50 (A549): > 20 µM
IC50 (HT-1080): > 20 µM
IC50 [4]: > 20 µM
IC50 (K562): > 20 µM
IC50 (SNU-638): 11.5 µM
IC50 (KB): 10.6 µM
IC50 (MCF7): 10.5 µM

O=C1Nc2ccc([N+](=O)[O-])cc2/C1=C1/Nc2ccc(F)cc2/C1=N/O
IC50 [1]: 0.00171 µM
Residual activity [2]: 90%
Selectivity ratio [3]: 6
IC50 (A549): 0.57 µM
IC50 (HT-1080): 0.64 µM
IC50 [4]: 0.28 µM
IC50 (K562): 0.46 µM
IC50 (SNU-638): 0.94 µM
IC50 (KB): 0.92 µM
IC50 (MCF7): 0.91 µM

O=C1Nc2ccc(F)cc2/C1=C1/Nc2ccc(O)cc2/C1=N/O
IC50 [1]: 0.00225 µM
Residual activity [2]: 90%
IC50 (A549): 4.09 µM
IC50 (HT-1080): 0.68 µM
IC50 [4]: 1.66 µM
IC50 (K562): 1.42 µM
IC50 (SNU-638): 2.11 µM
IC50 (KB): 4.62 µM
IC50 (MCF7): 2.61 µM

COc1ccc2c(c1)C(=N/O)/C(=C1/C(=O)Nc3ccc(F)cc31)N2
IC50 [1]: 4.12 µM
Activity [2]: inactive
Activity [5]: inactive
IC50 (A549): 6.71 µM
IC50 (HT-1080): 4.84 µM
IC50 [4]: 3.59 µM
IC50 (K562): 5.29 µM
IC50 (SNU-638): 13.6 µM
IC50 (KB): > 20 µM
IC50 (MCF7): > 20 µM

O=C1Nc2ccc(Cl)cc2/C1=C1/Nc2ccc(O)cc2/C1=N/O
IC50 [1]: 0.00527 µM
Residual activity [2]: 90%
IC50 (A549): 16.4 µM
IC50 (HT-1080): 2.92 µM
IC50 [4]: 3.51 µM
IC50 (K562): 12.2 µM
IC50 (SNU-638): 5.14 µM
IC50 (KB): 10.2 µM
IC50 (MCF7): 10.7 µM

O=C1Nc2ccc([N+](=O)[O-])cc2/C1=C1/Nc2ccc(Br)cc2/C1=N/O
solubility [6]: Insoluble
solubility [7]: < 100 µg/mL
solubility [8]: < 100 µg/mL
solubility [9]: < 100 µg/mL
IC50 (A549): 16.9 µM
IC50 (HT-1080): 1.45 µM
IC50 [4]: 0.45 µM
IC50 (K562): 0.77 µM
IC50 (SNU-638): 1.14 µM
IC50 (KB): 1.16 µM
IC50 (MCF7): 0.95 µM

O=Nc1c(-c2c(O)[nH]c3ccc([N+](=O)[O-])cc23)[nH]c2ccccc12
IC50 [1]: 0.00735 µM
solubility [6]: Insoluble
solubility [7]: < 100 µg/mL
solubility [8]: < 100 µg/mL
solubility [9]: < 100 µg/mL

O=C1Nc2ccc(OC(F)(F)F)cc2/C1=C1/Nc2ccc(O)cc2/C1=N/O
IC50 [1]: 0.00832 µM
Residual activity [2]: 90%
IC50 (A549): 16.9 µM
IC50 (HT-1080): 2.28 µM
IC50 [4]: 2.25 µM
IC50 (K562): 5.91 µM
IC50 (SNU-638): 2.96 µM
IC50 (KB): 5.81 µM
IC50 (MCF7): 4.23 µM

COc1ccc2c(c1)C(=N/O)/C(=C1/C(=O)Nc3ccc([N+](=O)[O-])cc31)N2
IC50 [1]: 2.95 µM
inhibition [2]: inactive
inhibition [5]: inactive
IC50 (A549): > 20 µM
IC50 (HT-1080): > 20 µM
IC50 [4]: > 20 µM
IC50 (K562): > 20 µM
IC50 (SNU-638): > 20 µM
IC50 (KB): > 20 µM
IC50 (MCF7): > 20 µM

Cc1ccc2c(c1)C(=N/O)/C(=C1/C(=O)Nc3ccc(Cl)cc31)N2
Residual activity [2]: 90%
IC50 (A549): > 20 µM
IC50 (HT-1080): > 20 µM
IC50 [4]: 18.8 µM
IC50 (K562): > 20 µM
IC50 (SNU-638): 12.7 µM
IC50 (KB): 5.18 µM
IC50 (MCF7): 8.79 µM

Cc1ccc2c(c1)C(=N/O)/C(=C1/C(=O)Nc3ccc(OC(F)(F)F)cc31)N2
Residual activity [2]: 90%
IC50 (A549): > 20 µM
IC50 (HT-1080): > 20 µM
IC50 [4]: > 20 µM
IC50 (K562): > 20 µM
IC50 (SNU-638): > 20 µM
IC50 (KB): 8.13 µM
IC50 (MCF7): 7.31 µM

O=C1Nc2ccc(Cl)cc2/C1=C1/Nc2ccc(F)cc2/C1=N/O
IC50 [1]: 0.00801 µM
Residual activity [2]: 90%
Selectivity ratio [3]: 6
IC50 (A549): > 20 µM
IC50 (HT-1080): 5.33 µM
IC50 [4]: 3.31 µM
IC50 (K562): 7.14 µM
IC50 (SNU-638): 6.32 µM
IC50 (KB): 9.11 µM
IC50 (MCF7): 7.13 µM

O=C1Nc2ccc(F)cc2/C1=C1/Nc2ccc(Cl)cc2/C1=N/O
IC50 [1]: 0.0101 µM
Residual activity [2]: 90%
Selectivity ratio [3]: 6
IC50 (A549): 18.9 µM
IC50 (HT-1080): 3.62 µM
IC50 [4]: 1.72 µM
IC50 (K562): 14.7 µM
IC50 (SNU-638): 2.28 µM
IC50 (KB): 3.62 µM
IC50 (MCF7): 3.52 µM

O=C1Nc2ccc(OC(F)(F)F)cc2/C1=C1/Nc2ccc(Cl)cc2/C1=N/O
IC50 [1]: 0.0762 µM
Activity [2]: inactive
Selectivity ratio [3]: 6
Activity [5]: inactive
IC50 (A549): > 20 µM
IC50 (HT-1080): 17.7 µM
IC50 [4]: 3.79 µM
IC50 (K562): > 20 µM
IC50 (SNU-638): 2.71 µM
IC50 (KB): 2.83 µM
IC50 (MCF7): 4.23 µM

O=C1Nc2ccc([N+](=O)[O-])cc2/C1=C1/Nc2ccc(Cl)cc2/C1=N/O
IC50 [1]: 0.0235 µM
inhibition [10]: inactive
Residual activity [2]: 90%
Selectivity ratio [3]: 8
inhibition [11]: inactive
inhibition [12]: inactive
inhibition [13]: inactive
inhibition [14]: inactive
inhibition [15]: inactive
inhibition [16]: inactive
inhibition [17]: inactive
inhibition [18]: inactive
inhibition [19]: inactive
IC50 (A549): 15.6 µM
IC50 (HT-1080): 1.25 µM
IC50 [4]: 0.33 µM
IC50 (K562): 0.56 µM
IC50 (SNU-638): 1.16 µM
IC50 (KB): 1.11 µM
IC50 (MCF7): 0.51 µM

COc1ccc2c(c1)C(=N/O)/C(=C1/C(=O)Nc3ccc(OC(F)(F)F)cc31)N2
IC50 [1]: 8.62 µM
Activity [2]: inactive
Activity [5]: inactive
IC50 (A549): > 20 µM
IC50 (HT-1080): > 20 µM
IC50 [4]: > 20 µM
IC50 (K562): > 20 µM
IC50 (SNU-638): > 20 µM
IC50 (KB): 20 µM
IC50 (MCF7): 13.2 µM

O=C1Nc2ccc(OC(F)(F)F)cc2/C1=C1/Nc2ccc(F)cc2/C1=N/O
IC50 [1]: 0.0603 µM
Residual activity [2]: 90%
Selectivity ratio [3]: 6
IC50 (A549): 19.9 µM
IC50 (HT-1080): 3.95 µM
IC50 [4]: 1.51 µM
IC50 (K562): 1.53 µM
IC50 (SNU-638): 1.89 µM
IC50 (KB): 3.81 µM
IC50 (MCF7): 4.12 µM
